Data on 14 compounds can be found in US20150274719A1, “AMINO-SUBSTITUTED IMIDAZO[1,2-A]PYRIDINECARBOXAMIDES AND THEIR USE” (BAYER PHARMA AKTIENGESELLSCHAFT, priority 2012, published 2015).

Broadly, the MRT is a mean duration of stay, worked out from the concentration-time curve. As a reminder, the half-life is the time in which the quantity being followed falls by half. A high value points to slow decline.

Read-outs that look alike come from different tables or passages of the source.

In data set [1] the target is T1, recombinant guanylate cyclase reporter cell line (Rattus norvegicus, UniProt P19686+P20595).
T1 construct: expressed in transfected cells; host or cells: recombinant reporter cell line
T1 sequence (P19686 1-690): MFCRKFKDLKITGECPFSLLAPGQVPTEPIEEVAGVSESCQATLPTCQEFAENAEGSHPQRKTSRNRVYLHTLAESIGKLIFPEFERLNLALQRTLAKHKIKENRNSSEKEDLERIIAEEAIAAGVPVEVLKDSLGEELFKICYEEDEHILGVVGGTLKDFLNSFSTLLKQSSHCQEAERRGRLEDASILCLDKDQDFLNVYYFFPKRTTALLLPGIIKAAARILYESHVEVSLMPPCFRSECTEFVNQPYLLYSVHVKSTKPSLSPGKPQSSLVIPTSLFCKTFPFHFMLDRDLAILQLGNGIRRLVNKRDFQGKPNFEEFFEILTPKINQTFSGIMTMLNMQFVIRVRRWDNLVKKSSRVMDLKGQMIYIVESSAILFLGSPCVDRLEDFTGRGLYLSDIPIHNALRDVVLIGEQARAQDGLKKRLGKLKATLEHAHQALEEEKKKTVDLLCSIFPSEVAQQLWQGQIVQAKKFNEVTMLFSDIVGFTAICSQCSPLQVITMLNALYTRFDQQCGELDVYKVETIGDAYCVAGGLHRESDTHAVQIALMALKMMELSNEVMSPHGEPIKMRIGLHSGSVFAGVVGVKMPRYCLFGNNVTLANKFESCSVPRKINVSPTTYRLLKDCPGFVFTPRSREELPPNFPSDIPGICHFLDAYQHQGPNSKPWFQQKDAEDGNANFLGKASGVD
T1 sequence (P20595 1-619): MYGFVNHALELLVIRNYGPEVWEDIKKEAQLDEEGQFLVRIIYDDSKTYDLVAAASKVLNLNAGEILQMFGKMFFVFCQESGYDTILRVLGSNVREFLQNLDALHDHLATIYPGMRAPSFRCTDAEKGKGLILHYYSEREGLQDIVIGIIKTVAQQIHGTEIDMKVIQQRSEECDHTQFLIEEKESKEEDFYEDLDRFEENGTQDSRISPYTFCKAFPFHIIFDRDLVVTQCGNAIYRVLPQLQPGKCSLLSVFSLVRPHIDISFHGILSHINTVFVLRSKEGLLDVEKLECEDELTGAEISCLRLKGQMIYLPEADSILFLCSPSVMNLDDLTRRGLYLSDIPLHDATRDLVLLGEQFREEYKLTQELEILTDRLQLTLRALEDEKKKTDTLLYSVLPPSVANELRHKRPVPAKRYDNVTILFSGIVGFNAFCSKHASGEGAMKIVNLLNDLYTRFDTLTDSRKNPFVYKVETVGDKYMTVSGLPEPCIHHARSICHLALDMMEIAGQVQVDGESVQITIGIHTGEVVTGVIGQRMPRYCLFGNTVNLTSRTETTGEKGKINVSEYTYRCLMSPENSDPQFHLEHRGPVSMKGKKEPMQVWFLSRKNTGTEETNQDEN
Kind of data set: Action on recombinant guanylate cyclase reporter cell line. The conditions noted are these: in some cases mean values from individual determinations. Type of data set: cell-based. Put shortly:
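Compounds are tested on whole cells carrying a guanylate cyclase reporter construct. The lowest concentration giving an effect is recorded as the MEC.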

Data set [2] can be described thus: Determination of pharmacokinetic parameters following intravenous and oral administration (rats). The conditions noted are these: intravenous administration in rats. The format is in vivo, male Wistar rats. As to the method: B-6. Determination of Pharmacokinetic Parameters Following Intravenous and Oral Administration
The pharmacokinetic parameters of the compounds according to the invention are determined in male CD-1 mice, male Wistar rats and female beagles. Intravenous administration in the case of mice and rats is carried out by means of a species-specific plasma/DMSO formulation, and in the case of dogs by means of a water/PEG400/ethanol formulation. In all species, oral administration of the dissolved substance is performed via gavage, based on a water/PEG400/ethanol formulation. The taking of blood from rats is simplified by inserting a silicone catheter into the right Vena jugularis externa prior to substance administration. The operation is carried out at least one day prior to the experiment with […] and administration of an analgesic (atropin/Rimadyl (3/1) 0.1 ml s.c.). The blood is taken (generally more than 10 time points) within a time window including terminal time points of at least 24 to a maximum of 72 hours after substance administration. When the blood is taken, it is passed into heparinised tubes. Then the blood plasma is obtained by centrifugation and is optionally stored at −20° C. until further processing.
An internal standard (which may also be a chemically unrelated substance) is added to the samples of the compounds according to the invention, calibration samples and qualifiers, and there follows protein precipitation by means of excess acetone. Addition of a buffer solution matched to the LC conditions, and subsequent vortexing, is followed by centrifugation at 1000 g. The supernatant is analysed by LC-MS/MS using C18 reversed-phase columns and variable mobile phase mixtures. The substances are quantified via the peak heights or areas from extracted ion chromatograms of specific selected ion monitoring experiments.
The plasma concentration/time plots determined are used to calculate the pharmacokinetic parameters such as AUC, Cmax, t1/2 (terminal half life), F (bioavailability), MRT (mean residence time) and CL (clearance), using a validated pharmacokinetic calculation program.
Since the substance quantification is carried out in plasma, it is necessary to determine the blood/plasma distribution of the substance in order to be able to adjust the pharmacokinetic parameters correspondingly. For this purpose, a defined amount of substance is incubated in heparinized whole blood of the species in question in a rocking roller mixture for 20 min. After centrifugation at 1000 g, the plasma concentration is measured (by means of LC-MS/MS; see above) and determined by calculating the ratio of the Cblood/Cplasma value.

The mark [3] stands for this setting: male, Wistar, rat, plasma, iv, read-out: MRT.

As to `Cc1nc2c(OCc3c(F)cccc3F)cc(C(F)F)cn2c1C(=O)NCC(C)(N)CF` (single isomer, unassigned; enantiomer b) [Example 292, ent-N-(2-amino-3-fluoro-2-methylpropyl)-8-[(2,6-difluorobenzyl)oxy]-6-(difluoromethyl)-2-methylimidazo[1,2-a]pyridine-3-carboxamide (Enantiomer B)], in data set [1], the “MEC (minimal effective concentration)” value was 0.03 µM. In addition, in data set [2], the AUCnorm amounted to 0.56 kg·h/L, the CLblood is 36.2 mL/min/kg, the MRT was determined as 4.1 h and the t1/2 is recorded as 3.2 h.
On the same counts, the results for `CCCC(C)(N)CNC(=O)c1c(C)nc2c(OCc3c(F)ccc(F)c3F)cc(C)cn12` (single isomer, unassigned) [Example 304, ent-N-(2-amino-2-methylpentyl)-2,6-dimethyl-8-[(2,3,6-trifluorobenzyl)oxy]imidazo[1,2-a]pyridine-3-carboxamide] are 0.10 µM, 0.34 kg·h/L, 37.8 mL/min/kg, 9.4 h and 6.2 h.
Take `Cc1cc(OCc2c(F)cccc2F)c2nc(C)c(C(=O)NCC3(N)CCCCC3)n2c1` [Example 307, N-[(1-aminocyclohexyl)methyl]-8-[(2,6-difluorobenzyl)oxy]-2,6-dimethylimidazo[1,2-a]pyridine-3-carboxamide]: in data set [1], the “MEC (minimal effective concentration)” value is 0.65 µM. Further, in data set [2], the AUCnorm came out at 0.35 kg·h/L and the CLblood was determined as 29.7 mL/min/kg. In data set [2] (male, Wistar, rat, plasma, iv), this compound gave a half-life of 6.9 h. Moreover, in data set [2] (setting [3]), the MRT amounted to 9.8 h.
On the same counts, the results for `CCCC(C)(N)CNC(=O)c1c(C)nc2c(OCc3cccc(F)c3F)cc(C)cn12` (racemic) [Example 303, rac-N-(2-amino-2-methylpentyl)-8-[(2,3-difluorobenzyl)oxy]-2,6-dimethylimidazo[1,2-a]pyridine-3-carboxamide] are 0.20 µM, 0.26 kg·h/L, 45.7 mL/min/kg, 5.7 h and 8.2 h.
On the same counts, the results for `Cc1nc2c(OCc3c(F)cccc3F)cccn2c1C(=O)NC(CN)c1ccc(F)cc1` (single isomer, unassigned; enantiomer b) [Example 10, ent-N-[2-Amino-1-(4-fluorophenyl)ethyl]-8-[(2,6-difluorobenzyl)oxy]-2-methylimidazo[1,2-a]-pyridine-3-carboxamide (Enantiomer B)] are 0.30 µM, 2.26 kg·h/L, 12.3 mL/min/kg, 4.8 h and 6.9 h.
For `Cc1nc2c(OCc3c(F)cccc3F)cccn2c1C(=O)NC(CN)CCCC(F)(F)F` (racemic) [Example 4, rac-N-(1-amino-6,6,6-trifluorohexan-2-yl)-8-[(2,6-difluorobenzyl)oxy]-2-methylimidazo[1,2-a]pyridine-3-carboxamide], in data set [2], the AUCnorm worked out at 0.58 kg·h/L and the CLblood was 27.8 mL/min/kg. The half-life in data set [2] (male, Wistar, rat, plasma, iv) was 5.2 h. Also, the mean residence time MRT in data set [2] (setting [3]) came to 6.7 h.
As for `CCC(C)(CN)NC(=O)c1c(C)nc2c(OCc3c(F)ccc(F)c3F)cc(C)cn12` (stereo not drawn) [Example 315, ent-N-(1-amino-2-methylbutan-2-yl)-2,6-dimethyl-8-[(2,3,6-trifluorobenzyl)oxy]imidazo[1,2-a]pyridine-3-carboxamide], in data set [1], the “MEC (minimal effective concentration)” value was determined as 0.30 µM.
Consider `COCC(N)CNC(=O)c1c(C)nc2c(OCc3c(F)cccc3F)cc(C)cn12` (single isomer, unassigned) [Example 243, ent-N-(2-Amino-3-methoxypropyl)-8-[(2,6-difluorobenzyl)oxy]-2,6-dimethylimidazo[1,2-a]-pyridine-3-carboxamide], for which the “MEC (minimal effective concentration)” value in data set [1] was determined as 1.00 µM.
On the same count and under the same terms, to `Cc1nc2c(OCc3c(F)cccc3F)cc(Cl)cn2c1C(=O)NCC(N)C(C)C` (single isomer, unassigned) [Example 212, ent-N-(2-Amino-3-methylbutyl)-6-chloro-8-[(2,6-difluorobenzyl)oxy]-2-methylimidazo[1,2-a]-pyridine-3-carboxamide] belongs 1.00 µM; to `Cc1nc2c(OCc3c(F)cccc3F)cc(Cl)cn2c1C(=O)NCC1CCCCN1` (single isomer, unassigned; ent-6) [Example 191, ent-6-Chloro-8-[(2,6-difluorobenzyl)oxy]-2-methyl-N-(piperidin-2-ylmethyl)imidazo[1,2-a]-pyridine-3-carboxamide], 1.00 µM; to `Cc1nc2c(OCc3c(F)cccc3F)cccn2c1C(=O)NCC(C)(N)CCOCc1ccccc1` (single isomer, unassigned; enantiomer a) [Example 266, ent-N-[2-Amino-4-(benzyloxy)-2-methylbutyl]-8-[(2,6-difluorobenzyl)oxy]-2-methylimidazo[1,2-a]pyridine-3-carboxamide (Enantiomer A)], 0.03 µM.
Still for that read-out and setting: to `Cc1nc2c(OCc3c(F)cccc3F)cccn2c1C(=O)NCC(C)(C)CN` [Example 103, N-(3-amino-2,2-dimethylpropyl)-8-[(2,6-difluorobenzyl)oxy]-2-methylimidazo[1,2-a]-pyridine-3-carboxamide] belongs 3.00 µM.
The same measure, in the same setting: the result for `Cc1cc(OCc2c(F)cccc2F)c2nc(C)c(C(=O)NC3CCC(N)C3)n2c1` (single isomer, unassigned) [Example 309, ent-N-(3-aminocyclopentyl)-8-[(2,6-difluorobenzyl)oxy]-2,6-dimethylimidazo[1,2-a]pyridine-3-carboxamide] reads 0.30 µM; that for `Cc1nc2c(OCc3c(F)cccc3F)cc(Cl)cn2c1C(=O)NC1CNCc2ccccc21` (single isomer, unassigned; ent-6) [Example 107, ent-6-chloro-8-[(2,6-difluorobenzyl)oxy]-2-methyl-N-(1,2,3,4-tetrahydroisoquinolin-4-yl)imidazo[1,2-a]pyridine-3-carboxamide], 0.30 µM.
